Patent US8927587B2, “Chemical compounds” (Pfizer Limited, priority 2012, dated 2015)

Target: T1, hNav1.8 (Homo sapiens, UniProt Q9Y5Y9)
T1 construct: host or cells: HEK cells, stably transfected
Assay: hNav1.8 whole-cell patch-clamp electrophysiology (conventional or PatchXpress 7000) in stably transfected HEK cells
Format: cell-based
Conditions: estimated IC50 calculated from single point % inhibition; HEK cells expressing hNav1.8; 8 sec prepulse to V1/2, 20 msec step to 0 mV; average of replicates; read-out: Nav1.8 EIC50
Outline: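 Whole-cell voltage clamp at 22-24 °C in HEK cells stably expressing hNav1.8, manually or on PatchXpress. Current evoked by 20 msec step to 0 mV after 8 s prepulse to each cell's inactivation V1/2; single-concentration % inhibition converted to estimated IC50, using only 20-80% inhibition values, averaged over replicates.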

T1 sequence (Q9Y5Y9 whole entry): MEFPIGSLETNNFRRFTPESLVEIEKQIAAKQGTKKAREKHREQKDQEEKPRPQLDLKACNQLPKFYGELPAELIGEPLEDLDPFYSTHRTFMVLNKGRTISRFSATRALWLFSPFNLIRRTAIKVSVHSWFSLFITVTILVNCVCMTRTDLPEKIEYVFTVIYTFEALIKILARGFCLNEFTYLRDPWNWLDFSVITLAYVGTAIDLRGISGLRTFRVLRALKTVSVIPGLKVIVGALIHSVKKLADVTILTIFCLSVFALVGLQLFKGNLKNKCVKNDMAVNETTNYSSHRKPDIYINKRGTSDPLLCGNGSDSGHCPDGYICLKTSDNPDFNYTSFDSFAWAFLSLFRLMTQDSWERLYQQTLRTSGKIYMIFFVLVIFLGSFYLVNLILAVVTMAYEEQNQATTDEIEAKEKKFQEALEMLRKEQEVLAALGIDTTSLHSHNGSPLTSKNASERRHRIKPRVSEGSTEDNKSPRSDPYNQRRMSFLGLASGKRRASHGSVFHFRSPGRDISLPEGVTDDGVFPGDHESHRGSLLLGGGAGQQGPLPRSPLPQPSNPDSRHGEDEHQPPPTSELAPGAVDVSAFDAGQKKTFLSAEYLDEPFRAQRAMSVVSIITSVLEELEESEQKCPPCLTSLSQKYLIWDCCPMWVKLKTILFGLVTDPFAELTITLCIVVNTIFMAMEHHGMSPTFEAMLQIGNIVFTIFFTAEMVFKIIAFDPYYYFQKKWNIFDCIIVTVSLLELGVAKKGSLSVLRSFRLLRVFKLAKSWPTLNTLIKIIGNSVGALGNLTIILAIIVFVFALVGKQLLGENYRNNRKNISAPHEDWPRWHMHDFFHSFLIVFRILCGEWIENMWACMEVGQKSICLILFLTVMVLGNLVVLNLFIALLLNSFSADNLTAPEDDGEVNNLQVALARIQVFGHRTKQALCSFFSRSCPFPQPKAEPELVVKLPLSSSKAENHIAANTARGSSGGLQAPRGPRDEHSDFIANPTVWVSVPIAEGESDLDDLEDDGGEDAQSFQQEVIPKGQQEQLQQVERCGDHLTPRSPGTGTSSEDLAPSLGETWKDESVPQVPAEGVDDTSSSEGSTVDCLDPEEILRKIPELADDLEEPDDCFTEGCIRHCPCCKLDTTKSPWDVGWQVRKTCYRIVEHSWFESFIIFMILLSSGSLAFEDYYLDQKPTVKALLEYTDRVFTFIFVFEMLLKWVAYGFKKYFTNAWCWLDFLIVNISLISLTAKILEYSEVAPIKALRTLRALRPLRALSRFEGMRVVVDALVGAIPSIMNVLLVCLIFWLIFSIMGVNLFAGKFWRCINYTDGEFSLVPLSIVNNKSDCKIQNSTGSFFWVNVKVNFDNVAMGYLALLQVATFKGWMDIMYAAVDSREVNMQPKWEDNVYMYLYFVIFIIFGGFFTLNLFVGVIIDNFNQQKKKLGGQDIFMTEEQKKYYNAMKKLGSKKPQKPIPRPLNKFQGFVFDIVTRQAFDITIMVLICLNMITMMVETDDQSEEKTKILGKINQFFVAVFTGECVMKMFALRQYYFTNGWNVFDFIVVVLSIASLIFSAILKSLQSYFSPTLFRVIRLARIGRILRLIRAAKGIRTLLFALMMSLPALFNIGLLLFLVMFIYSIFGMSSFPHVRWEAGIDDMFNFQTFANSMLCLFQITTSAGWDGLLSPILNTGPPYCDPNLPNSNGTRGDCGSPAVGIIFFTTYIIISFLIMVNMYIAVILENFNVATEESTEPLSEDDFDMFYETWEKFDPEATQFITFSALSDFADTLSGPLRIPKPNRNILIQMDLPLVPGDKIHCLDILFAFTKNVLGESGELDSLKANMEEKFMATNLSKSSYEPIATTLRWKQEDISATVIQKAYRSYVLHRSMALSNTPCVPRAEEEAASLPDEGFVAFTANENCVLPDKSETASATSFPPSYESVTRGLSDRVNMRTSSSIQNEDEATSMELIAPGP

| IC50 [µM] | SMILES |
| --- | --- |
| 0.284 | CO[C@H](C)[C@H](N)c1nc2cc(C3CCCC3)ccc2[nH]1 [Example 145, (1R,2R)-1-(5-Cyclopentyl-1H-benzo[d]imidazol-2-yl)-2-methoxypropan-1-amine] |
| 0.0273 | CCC[C@H](N)c1nc2cc(-c3ccc(C#N)c(F)c3)ccc2[nH]1 [Example 146, 4-{2-[(1S)-1-Aminobutyl]-1H-benzimidazol-5-yl}-2-fluorobenzonitrile] |
| 0.11 | CCC[C@H](N)c1nc2cc(-c3ccc(C#N)cc3)ccc2[nH]1 [Example 147, 4-{2-[(1S)-1-Aminobutyl]-1H-benzimidazol-5-yl}benzonitrile] |
| 1 | CC(C)c1ccc2[nH]c([C@H](N)[C@@H](C)O)nc2c1 [Example 148, (1S,2R)-1-Amino-1-[5-(propan-2-yl)-1H-benzimidazol-2-yl]propan-2-ol] |
| 0.134 | CC(N)(CO)c1nc2cc(-c3ccc(C#N)c(F)c3)ccc2[nH]1 (stereo not shown) [Example 150, 4-(2-(2-Amino-1-hydroxypropan-2-yl)-1H-benzo[d]imidazol-5-yl)-2-fluorobenzonitrile] |
| 0.0963 | COC[C@H](N)c1nc2cc(-c3ccc(C#N)cc3)ccc2[nH]1 [Example 153, 4-{2-[(1R)-1-Amino-2-methoxyethyl]-1H-benzimidazol-5-yl}benzonitrile] |
| 0.108 | C[C@@H](O)[C@H](N)c1cn2cc(-c3ccc(C#N)cc3)ccc2n1 [Example 154, 4-{2-[(1R,2R)-1-Amino-2-hydroxypropyl]imidazo[1,2-a]pyridin-6-yl}benzonitrile] |
| 0.0546 | C[C@@H](C(N)=O)[C@H](N)c1cn2cc(-c3ccc(C#N)cc3)ccc2n1 [Example 156, (2R,3S)-3-Amino-3-[6-(4-cyanophenyl)imidazo[1,2-a]pyridin-2-yl]-2-methylpropanamide] |

More lines, now with the values behind:

| SMILES | IC50 [µM] |
| --- | --- |
| C[C@@H](C(=O)N(C)C)[C@H](N)c1nc2cc(C(C)(C)C)ccc2[nH]1 [Example 149, (2R,3S)-3-Amino-3-(5-tert-butyl-1H-benzimidazol-2-yl)-N,N,2-trimethylpropanamide] | 0.303 |
| C[C@H](OC(N)=O)[C@H](N)c1nc2cc(C34CC5CC(CC(C5)C3)C4)ccc2[nH]1 [Example 151, (1R,2S)-1-(5-((3R,5R,7R)-Adamantan-1-yl)-1H-benzo[d]imidazol-2-yl)-1-aminopropan-2-yl carbamate] | 0.0452 |
| NC(=O)C[C@H](N)c1nc2cc(C34CC5CC(CC(C5)C3)C4)ccc2[nH]1 [Example 152, (3S)-3-Amino-3-[5-(tricyclo[3.3.1.1^3,7]dec-1-yl)-1H-benzimidazol-2-yl]propanamide] | 0.101 |
| CC(C)(C)c1ccc2nc([C@@H](N)CO)cn2c1 [Example 155, (2R)-2-Amino-2-(6-tert-butylimidazo[1,2-a]pyridin-2-yl)ethanol] | 0.208 |
| C[C@@H](C(N)=O)[C@H](N)c1cn2cc(C(C)(C)C)ccc2n1 [Example 157, (2R,3S)-3-Amino-3-(6-tert-butylimidazo[1,2-a]pyridin-2-yl)-2-methylpropanamide] | 0.0445 |
